In brackets after ≈: the same amount, converted by molar mass. Read-outs that look alike come from different tables or passages of the source.
Columns and labels:
[1] = tested on: S. typhimurium ATCC 14028; experiment: micro-dilution broth method (MIC, MBC); format: cell-based, Salmonella Typhimurium
B. subtilis ATCC 6633 = experiment: micro-dilution broth method (MIC, MBC); format: cell-based, Bacillus subtilis
F. nucleatum ATCC 25586 = experiment: micro-dilution broth method (MIC, MBC); format: cell-based, Fusobacterium nucleatum
H. pylori ATCC 43504 = experiment: micro-dilution broth method (MIC, MBC); format: cell-based
B. cereus ATCC 10876 = experiment: micro-dilution broth method (MIC, MBC); format: cell-based, Bacillus cereus
B. fragilis ATCC 10240 = experiment: micro-dilution broth method (MIC, MBC); format: cell-based, Bacteroides fragilis
HepG2 cells [2] = experiment: NRU assay (lysosomal activity), 72 h exposure; format: cell-based, human; settings: Homo sapiens, mean ± SD, n = 3
Experimental: (§1) The human hepatoma (HepG2) and colorectal adenocarcinoma (Caco-2) cells were purchased from the American Type Culture Collection: ATCC HB-8065 and ATCC HTB-37, respectively. These cells were cultured in Minimum Essential Medium Eagle (MEME) (ATCC). The murine fibroblasts cell line (Balb/c 3T3 clone A31) (gift from the Department of Swine Diseases of the National Veterinary Research Institute in Pulawy) was cultured in Dulbecco’s Modified Eagle Medium (DMEM) (ATCC). The media were supplemented with 10% BCS (Balb/c 3T3), 10% FBS (HepG2), 20% FBS (Caco-2), 1% L-glutamine, 1% antibiotic solution. The cells were maintained in 75 cm^2 cell culture flasks (NUNC) in a humidified incubator at 37 °C in an atmosphere of 5% CO2. The medium was refreshed every two or three days, and the cells were trypsinized by 0.25% trypsin–0.02% EDTA after reaching 70–80% confluence. Single cell suspensions were prepared and adjusted to a density of 2 × 10^5 cell/mL^−1 (HepG2), 1 × 10^5 cell/mL^−1 (Caco-2) and 5 × 10^4 cell/mL^−1 (Balb/c 3T3). The cell suspension was transferred to 96-well plates (100 µL/well) and incubated for 24 h before the exposure to the studied compounds. Stock solutions of ligands and metal complexes were prepared in sterile water and diluted with culture medium to obtain a concentration range from 0.1 to 10 µM. The final concentration of sterile water was 0.1% in the medium. […] As a negative control, cultured cells were grown in the absence of studied compounds. Each concentration was tested in six replicates in three independent experiments. Cytotoxicity was assessed after 72 h of exposure of the cells to compounds. The medium was not changed during the incubation time.
This method is based on staining living cells with neutral red, which readily diffuses through the plasma membrane and accumulates in lysosomes. […] After 10 min of shaking, the absorbance of the dissolved NR was measured using a Synergy HTX multi-mode reader (BioTek® Instruments Inc., Winooski, VT, USA) at 540 nm using a blank as a reference. Cytotoxicity was expressed as a percentage of the negative control. […]

M. luteus ATCC 10240 = experiment: micro-dilution broth method (MIC, MBC); format: cell-based, Micrococcus luteus
HepG2 cells [3] = experiment: TPC assay (total protein content), 72 h exposure; format: cell-based, human; settings: Homo sapiens, mean ± SD, n = 3
Experimental: as §1
This assay is based upon staining the total cellular protein (proliferation). After the incubation, the medium containing the drug was removed, and 100 µL Coomassie brilliant blue R-250 dye was added to each well. The plate was shaken for 10 min. Then, the stain was removed and the cells were rinsed twice with 100 µL of washing solution (glacial acetic acid/ethanol/water, 5:10:85, v:v:v). After that, 100 µL of the desorbing solution (1 M potassium acetate) was added, and plates were shaken again for 10 min. The absorbance was measured at 595 nm in a microplate reader Synergy HTX multi-mode reader (BioTek® Instruments Inc., Winooski, VT, USA) using a blank as a reference. Cytotoxicity was expressed as a percentage of the negative control.
The study was performed in three independent experiments. The obtained results are presented as mean values ± SD (standard deviation). The assessment of the cytotoxicity data used a one-way analysis of variance (ANOVA) followed by Dunnett’s post hoc test, which was applied to determine significance relative to the negative control.

V. parvula ATCC 10790 = experiment: micro-dilution broth method (MIC, MBC); format: cell-based, Veillonella parvula
E. coli ATCC 25922 = experiment: micro-dilution broth method (MIC, MBC); format: cell-based, Escherichia coli
P. acnes ATCC 11827 = experiment: micro-dilution broth method (MIC, MBC); format: cell-based, Propionibacterium acnes
S. aureus ATCC 25923 = experiment: micro-dilution broth method (MIC, MBC); format: cell-based, Staphylococcus aureus
A. israeli ATCC 10049 = experiment: micro-dilution broth method (MIC, MBC); format: cell-based, Actinomyces israelii
[4] = S. typhimurium ATCC 14028, value in brackets
[5] = B. subtilis ATCC 6633, value in brackets
[6] = F. nucleatum ATCC 25586, value in brackets
[7] = Fusobacterium nucleatum, ATCC25586
[8] = H. pylori ATCC 43504, value in brackets
[9] = B. cereus ATCC 10876, value in brackets
[10] = B. fragilis ATCC 10240, value in brackets
[11] = M. luteus ATCC 10240, value in brackets
[12] = V. parvula ATCC 10790, value in brackets
[13] = E. coli ATCC 25922, value in brackets
[14] = P. acnes ATCC 11827, value in brackets
[15] = S. aureus ATCC 25923, value in brackets
[16] = A. israeli ATCC 10049, value in brackets

Compound: Cc1ncc([N+](=O)[O-])n1CCO [MTZ, 2-Methyl-5-nitroimidazole-1-ethanol]
- MBC [1, 4]: > 5.85 µM/mL
- MIC [1, 4]: > 5.85 µM/mL
- MBC ([1]; Salmonella enterica, S. typhimurium ATCC 14028, read-out: MBC): > 1000 µg/mL
- MIC ([1]; Salmonella enterica, S. typhimurium ATCC 14028, read-out: MIC): > 1000 µg/mL
- MBC (B. subtilis ATCC 6633; [5]): 1.46 µM/mL
- MIC (B. subtilis ATCC 6633; [5]): 0.73 µM/mL
- MBC (B. subtilis ATCC 6633; Bacillus subtilis, ATCC6633, B. subtilis ATCC 6633, read-out: MBC): 250 µg/mL (≈ 1460 µM)
- MBC (F. nucleatum ATCC 25586; [6]): 0.01 µM/mL
- MIC (F. nucleatum ATCC 25586; [6]): 0.01 µM/mL
- MBC (F. nucleatum ATCC 25586; [7]): 1.95 µg/mL (≈ 11.4 µM)
- MIC (F. nucleatum ATCC 25586; [7]): 1.95 µg/mL (≈ 11.4 µM)
- MBC (H. pylori ATCC 43504; [8]): 0.09 µM/mL
- MIC (H. pylori ATCC 43504; [8]): 0.09 µM/mL
- MBC (H. pylori ATCC 43504; Helicobacter pylori, ATCC43504, H. pylori ATCC 43504, read-out: MBC): 15.6 µg/mL (≈ 91.1 µM)
- MIC (H. pylori ATCC 43504; Helicobacter pylori, ATCC43504, H. pylori ATCC 43504, read-out: MIC): 15.6 µg/mL (≈ 91.1 µM)
- MBC (B. cereus ATCC 10876; [9]): > 5.85 µM/mL
- MIC (B. cereus ATCC 10876; [9]): 2.93 µM/mL
- MBC (B. cereus ATCC 10876; Bacillus cereus, ATCC10876, B. cereus ATCC 10876, read-out: MBC): > 1000 µg/mL
- MIC (B. cereus ATCC 10876; Bacillus cereus, ATCC10876, B. cereus ATCC 10876, read-out: MIC): 500 µg/mL (≈ 2920 µM)
- MBC (B. fragilis ATCC 10240; [10]): 0.003 µM/mL
- MIC (B. fragilis ATCC 10240; [10]): 0.003 µM/mL
- MBC (B. fragilis ATCC 10240; Bacteroides fragilis, ATCC10240, B. fragilis ATCC 10240, read-out: MBC): 0.49 µg/mL (≈ 2.86 µM)
- MIC (B. fragilis ATCC 10240; Bacteroides fragilis, ATCC10240, B. fragilis ATCC 10240, read-out: MIC): 0.49 µg/mL (≈ 2.86 µM)
- IC50 (HepG2 cells [2]): > 10 µM
- MBC (M. luteus ATCC 10240; [11]): > 5.85 µM/mL
- MIC (M. luteus ATCC 10240; [11]): 5.85 µM/mL
- MBC (M. luteus ATCC 10240; Micrococcus luteus, ATCC10240, M. luteus ATCC 10240, read-out: MBC): > 1000 µg/mL
- MIC (M. luteus ATCC 10240; Micrococcus luteus, ATCC10240, M. luteus ATCC 10240, read-out: MIC): 1000 µg/mL (≈ 5840 µM)
- IC50 (HepG2 cells [3]): > 10 µM
- MBC (V. parvula ATCC 10790; [12]): 0.01 µM/mL
- MIC (V. parvula ATCC 10790; [12]): 0.01 µM/mL
- MBC (V. parvula ATCC 10790; Veillonella parvula, ATCC10790): 1.95 µg/mL (≈ 11.4 µM)
- MIC (V. parvula ATCC 10790; Veillonella parvula, ATCC10790): 1.95 µg/mL (≈ 11.4 µM)
- MBC (E. coli ATCC 25922; [13]): > 5.85 µM/mL
- MIC (E. coli ATCC 25922; [13]): > 5.85 µM/mL
- MBC (E. coli ATCC 25922; Escherichia coli, ATCC25922, E. coli ATCC 25922, read-out: MBC): > 1000 µg/mL
- MIC (E. coli ATCC 25922; Escherichia coli, ATCC25922, E. coli ATCC 25922, read-out: MIC): > 1000 µg/mL
- MBC (P. acnes ATCC 11827; Cutibacterium acnes, ATCC11827, P. acnes ATCC 11827, read-out: MBC): > 1000 µg/mL
- MIC (P. acnes ATCC 11827; Cutibacterium acnes, ATCC11827, P. acnes ATCC 11827, read-out: MIC): > 1000 µg/mL
- MBC (P. acnes ATCC 11827; [14]): > 5.85 µM/mL
- MIC (P. acnes ATCC 11827; [14]): > 5.85 µM/mL
- MBC (S. aureus ATCC 25923; [15]): > 5.85 µM/mL
- MIC (S. aureus ATCC 25923; [15]): > 5.85 µM/mL
- MBC (S. aureus ATCC 25923; Staphylococcus aureus, ATCC25923, S. aureus ATCC 25923, read-out: MBC): > 1000 µg/mL
- MIC (S. aureus ATCC 25923; Staphylococcus aureus, ATCC25923, S. aureus ATCC 25923, read-out: MIC): > 1000 µg/mL
- MBC (A. israeli ATCC 10049; [16]): > 5.85 µM/mL
- MIC (A. israeli ATCC 10049; [16]): > 5.85 µM/mL
- MBC (A. israeli ATCC 10049; Actinomyces israelii, ATCC10049, A. israeli ATCC 10049, read-out: MBC): > 1000 µg/mL
- MIC (A. israeli ATCC 10049; Actinomyces israelii, ATCC10049, A. israeli ATCC 10049, read-out: MIC): > 1000 µg/mL

Source: publication PMC8869984, “Multifunctional Silver(I) Complexes with Metronidazole Drug Reveal Antimicrobial Properties and Antitumor Activity against Human Hepatoma and Colorectal Adenocarcinoma Cells” (Cancers, 2022)
